Data published in US20100093702A1, “METHYLENE AMINES OF THIENO[2,3-d]PYRIMIDINE AND THEIR USE AS ADENOSINE A2a RECEPTOR ANTAGONISTS” (priority 2008, published 2010).

How the values were obtained:
[1] = biological target: T1, human A2a adenosine receptor (Homo sapiens, UniProt P29274); test: Ligand Binding Assay for Adenosine A2a Receptor (A2A-B); conditions: HEK293 plasma membrane, radioligand [3H]CGS21680
T1 construct: purchased PerkinElmer RB-HA2a; host or cells: HEK293
Experimental: Ligand Binding Assay for Adenosine A2a Receptor
Ligand binding assay of adenosine A2a receptor was performed using plasma membrane of HEK293 cells containing human A2a adenosine receptor (PerkinElmer, RB-HA2a) and radioligand [^3H]CGS21680 (PerkinElmer, NET 1021). Assay was set up in 96-well polypropylene plate in total volume of 200 μL by sequentially adding 20 μL 1:20 diluted membrane, 130 μL assay buffer (50 mM Tris.HCl, pH7.4 10 mM MgCl2, 1 mM EDTA) containing [^3H] CGS21680, 50 μL diluted compound (4×) or vehicle control in assay buffer. Nonspecific binding was determined by […] NECA. Reaction was carried out at room temperature for 2 hours before filtering through 96-well GF/C filter plate pre-soaked in 50 mM Tris.HCl, pH7.4 containing 0.3% polyethylenimine. Plates were then washed 5 times with cold 50 mM Tris.HCl, pH7.4, dried and sealed at the bottom. Microscintillation fluid 30 μL was added to each well and the top sealed. Plates were counted on Packard Topcount for [^3H]. Data was analyzed in Microsoft Excel and GraphPad Prism programs. (Varani, K.; Gessi, S.; Dalpiaz, A.; Borea, P. A. British Journal of Pharmacology, 1996, 117, 1693)

[2] = biological target: T2, human adenosine A2a receptor (Homo sapiens, UniProt P29274); test: Adenosine A2a Receptor Functional Assay (A2AGAL2); format: cell-based; conditions: CHO-K1 cells, cAMP inducible beta-galactosidase reporter, 15 nM NECA agonist challenge
T2 construct: expressed in transfected cells; host or cells: CHO-K1
T2 sequence (P29274 whole entry): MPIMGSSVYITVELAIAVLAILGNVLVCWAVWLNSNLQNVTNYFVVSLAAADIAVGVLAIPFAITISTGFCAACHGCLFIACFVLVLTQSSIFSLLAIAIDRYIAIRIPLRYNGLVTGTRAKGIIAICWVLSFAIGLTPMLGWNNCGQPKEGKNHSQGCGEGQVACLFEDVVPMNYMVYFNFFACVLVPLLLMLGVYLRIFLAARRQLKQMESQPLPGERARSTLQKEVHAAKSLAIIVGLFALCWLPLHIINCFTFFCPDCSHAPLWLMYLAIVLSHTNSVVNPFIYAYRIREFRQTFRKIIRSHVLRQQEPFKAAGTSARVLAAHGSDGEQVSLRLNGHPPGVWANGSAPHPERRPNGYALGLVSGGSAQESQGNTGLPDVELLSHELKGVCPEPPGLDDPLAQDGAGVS
Experimental: Adenosine A2a Receptor Functional Assay (A2AGAL2)
To initiate the functional assay, cryopreserved CHO-K1 cells overexpressing the human adenosine A2a receptor and containing a cAMP inducible beta-galactosidase reporter gene were thawed, centrifuged, DMSO containing media removed, and then seeded with fresh culture media into clear 384-well tissue culture treated plates (BD #353961) at a concentration of 10K cells/well. Prior to assay, these plates were cultured for two days at 37° C., 5% CO2, 90% Rh. On the day of the functional assay, culture media was removed and replaced with 45 uL assay medium (Hams/F-12 Modified (Mediatech # 10-080CV) supplemented w/0.1% BSA). Test compounds were diluted and 11 point curves created at a 1000× concentration in 100% DMSO. Immediately after addition of assay media to the cell plates, 50 nL of the appropriate test compound antagonist or agonist control curves were added to cell plates using a Cartesian Hummingbird. Compound curves were allowed to incubate at room temperature on cell plates for approximately 15 minutes before addition of a 15 nM NECA (Sigma E2387) agonist challenge (5 uL volume). A control curve of NECA, a DMSO/Media control, and a single dose of Forskolin (Sigma F3917) were also included on each plate. After additions, cell plates were allowed to incubate at 37° C., 5% CO2, 90% Rh for 5.5-6 hours. After incubation, media was removed, and cell plates were washed 1×50 uL with DPBS w/o Ca & Mg (Mediatech 21-031-CV). Into dry wells, 20 uL of 1× Reporter Lysis Buffer (Promega E3971 (diluted in dH2O from 5× stock)) was added to each well and plates frozen at −20° C. overnight. For β-galactosidase enzyme calorimetric assay, plates were thawed out at room temperature and 20 μL 2× assay buffer (Promega) was added to each well. Color was allowed to develop at 37° C., 5% CO2, 90% Rh for 1-1.5 h or until reasonable signal appeared. The calorimetric reaction was stopped with the addition of 60 μL/well 1M sodium carbonate. Plates were counted at 405 nm on a SpectraMax Microplate Reader (Molecular Devices). Data was analyzed in Microsoft Excel and IC/EC50 curves were fit using a standardized macro.

[3] = biological target: T3, human adenosine A1 receptor (Homo sapiens, UniProt P30542); test: Adenosine A1 Receptor Functional Assay (A1GAL2); format: cell-based; conditions: CHO-K1 cells, cAMP inducible beta-galactosidase reporter, 4 nM r-PIA/1 uM Forskolin challenge
T3 construct: expressed in transfected cells; host or cells: CHO-K1
T3 sequence (P30542 1-326): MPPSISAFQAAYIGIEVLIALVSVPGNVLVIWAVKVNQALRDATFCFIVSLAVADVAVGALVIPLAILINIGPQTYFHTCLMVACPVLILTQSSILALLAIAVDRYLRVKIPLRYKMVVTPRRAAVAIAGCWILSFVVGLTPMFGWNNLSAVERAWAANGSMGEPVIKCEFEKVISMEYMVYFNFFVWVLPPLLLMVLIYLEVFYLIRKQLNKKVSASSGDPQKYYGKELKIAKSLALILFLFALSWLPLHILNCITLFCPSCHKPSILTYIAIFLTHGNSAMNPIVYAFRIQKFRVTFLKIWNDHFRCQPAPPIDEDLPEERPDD
Experimental: Adenosine A1 Receptor Functional Assay (A1GAL2)
To initiate the functional assay, cryopreserved CHO-K1 cells overexpressing the human adenosine A1 receptor and containing a cAMP inducible beta-galactosidase reporter gene were thawed, centrifuged, DMSO containing media removed, and then seeded with fresh culture media into clear 384-well tissue culture treated plates (BD #353961) at a concentration of 10K cells/well. Prior to assay, these plates were cultured for two days at 37° C., 5% CO2, 90% Rh. On the day of the functional assay, culture media was removed and replaced with 45 uL assay medium (Hams/F-12 Modified (Mediatech # 10-080CV) supplemented w/0.1% BSA). Test compounds were diluted and 11 point curves created at a 1000× concentration in 100% DMSO. Immediately after addition of assay media to the cell plates, […] of the appropriate test compound antagonist or agonist control curves were added to cell plates using a Cartesian Hummingbird. Compound curves were allowed to incubate at room temperature on cell plates for approximately 15 minutes before addition of a 4 nM r-PIA (Sigma P4532)/1 uM Forskolin (Sigma F3917) agonist challenge (5 uL volume). A control curve of r-PIA in 1 uM Forskolin, a DMSO/Media control, and a single dose of Forskolin were also included on each plate. After additions, cell plates were allowed to incubate at 37° C., 5% CO2, 90% Rh for 5.5-6 hours. After incubation, media was removed, and cell plates were washed 1×50 uL with DPBS w/o Ca & Mg (Mediatech 21-031-CV).
Into dry wells, 20 uL of 1× Reporter Lysis Buffer (Promega E3971 (diluted in dH2O from 5× stock)) was added to each well and plates frozen at −20° C. overnight. For β-galactosidase enzyme calorimetric assay, plates were thawed out at room temperature and 20 μL 2× assay buffer (Promega) was added to each well. Color was allowed to develop at 37° C., 5% CO2, 90% Rh for 1-1.5 h or until reasonable signal appeared. The calorimetric reaction was stopped with the addition of 60 μL/well 1M sodium carbonate. Plates were counted at 405 nm on a SpectraMax Microplate Reader (Molecular Devices). Data was analyzed in Microsoft Excel and IC/EC50 curves were fit using a standardized macro.

T1 sequence (P29274 whole entry): as the sequence (P29274 whole entry) above

Ki [1] [nM]	Ki [2] [nM]	Ki [3] [nM]	SMILES
207			Nc1nc(-c2cccs2)nc2sc(CN3CCOCC3)cc12 [Example 26, 6-Morpholin-4-ylmethyl-2-thiophen-2-yl-thieno[2,3-d]pyrimidin-4-ylamine]
	348	634	Nc1nc(-c2cc3ccccc3o2)nc2sc(CN3CCC(F)CC3)cc12 [Example 59, 2-Benzofuran-2-yl-6-(4-fluoropiperidin-1-ylmethyl)thieno[2,3-d]pyrimidin-4-ylamine]
	300	1250	Nc1nc(-c2cccc(F)c2)nc2sc(CN3CCC(F)CC3)cc12 [Example 60, 2-(3-Fluoro-phenyl)-6-(4-fluoro-piperidin-1-ylmethyl)-thieno[2,3-d]pyrimidin-4-ylamine]
	123	616	Nc1nc(-c2cccc(F)c2)nc2sc(CN3CCOCC3)cc12 [Example 61, 2-(3-Fluoro-phenyl)-6-morpholin-4-ylmethyl-thieno[2,3-d]pyrimidin-4-ylamine]
	1390	8430	N#Cc1ccc(-c2nc(N)c3cc(CN4CCC(F)CC4)sc3n2)cc1 [Example 66, 4-[4-Amino-6-(4-fluoro-piperidin-1-ylmethyl)-thieno[2,3-d]pyrimidin-2-yl]-benzonitrile]
	384	8550	N#Cc1ccc(-c2nc(N)c3cc(CN4CCCCCC4)sc3n2)cc1 [Example 67, 4-(4-Amino-6-azepan-1-ylmethyl-thieno[2,3-d]pyrimidin-2-yl)-benzonitrile]
	303	3220	COc1cccc(-c2nc(N)c3cc(CN4CCC(F)CC4)sc3n2)c1 [Example 71, 6-(4-Fluoro-piperidin-1-ylmethyl)-2-(3-methoxy-phenyl)-thieno[2,3-d]pyrimidin-4-ylamine]
	91.3	1910	N#Cc1ccc(-c2nc(N)c3cc(CN4CCC(F)CC4)sc3n2)s1 [Example 72, 5-[4-Amino-6-(4-fluoro-piperidin-1-ylmethyl)-thieno[2,3-d]pyrimidin-2-yl]-thiophene-2-carbonitrile]
	356	3250	Nc1nc(-c2ncco2)nc2sc(CN3CCOCC3)cc12 [Example 75, 6-Morpholin-4-ylmethyl-2-oxazol-2-yl-thieno[2,3-d]pyrimidin-4-ylamine]
	209	740	Nc1nc(-c2ccc3c(c2)OCO3)nc2sc(CN3CCC(F)CC3)cc12 [Example 76, 2-Benzo[1,3]dioxol-5-yl-6-(4-fluoro-piperidin-1-ylmethyl)-thieno[2,3-d]pyrimidin-4-ylamine]
	795	3890	Nc1nc(-c2ccc[nH]2)nc2sc(CN3CCC(F)CC3)cc12 [Example 81, 6-(4-Fluoro-piperidin-1-ylmethyl)-2-(1H-pyrrol-2-yl)-thieno[2,3-d]pyrimidin-4-ylamine]
	373	2990	COc1cccc(-c2nc(N)c3cc(CN4CCOCC4)sc3n2)c1 [Example 84, 2-(3-Methoxy-phenyl)-6-morpholin-4-ylmethyl-thieno[2,3-d]pyrimidin-4-ylamine]
	6620	> 10000	N#Cc1cncc(-c2nc(N)c3cc(CN4CCC(F)CC4)sc3n2)c1 [Example 87, 5-[4-Amino-6-(4-fluoro-piperidin-1-ylmethyl)-thieno[2,3-d]pyrimidin-2-yl]-nicotinonitrile]
	8.23	1240	Nc1nc(-c2ccco2)nc2sc(CN3CCC(F)(F)C3)cc12 [Example 94, 6-(3,3-Difluoro-pyrrolidin-1-ylmethyl)-2-furan-2-yl-thieno[2,3-d]pyrimidin-4-ylamine]
	610	17800	Nc1nc(-c2ccc(C(F)F)o2)nc2sc(CN3CCC(F)(F)CC3)cc12 [Example 99, 2-(5-Difluoromethyl-furan-2-yl)-6-(4,4-difluoro-piperidin-1-ylmethyl)-thieno[2,3-d]pyrimidin-4-ylamine]
	42.4	1670	Nc1nc(-c2ccc(C(F)F)o2)nc2sc(CN3CCC(F)CC3)cc12 [Example 100, 2-(5-Difluoromethyl-furan-2-yl)-6-(4-fluoro-piperidin-1-ylmethyl)-thieno[2,3-d]pyrimidin-4-ylamine]
	42.5	2100	Nc1nc(-c2ccc(C(F)F)o2)nc2sc(CN3CCCC(F)(F)C3)cc12 [Example 101, 2-(5-Difluoromethyl-furan-2-yl)-6-(3,3-difluoro-piperidin-1-ylmethyl)-thieno[2,3-d]pyrimidin-4-ylamine]
	27.6	732	C[C@@H]1CCC[C@H](C)N1Cc1cc2c(N)nc(-c3ccc(C(F)F)o3)nc2s1 [Example 102, 2-(5-Difluoromethyl-furan-2-yl)-6-(2,6-dimethyl-piperidin-1-ylmethyl)-thieno[2,3-d]pyrimidin-4-ylamine]
	131	2090	CCN(CC)Cc1cc2c(N)nc(-c3ccc(C(F)F)o3)nc2s1 [Example 103, 6-Diethylaminomethyl-2-(5-difluoromethyl-furan-2-yl)-thieno[2,3-d]pyrimidin-4-ylamine]
	691	3860	Nc1nc(-c2ccnc(Cl)c2)nc2sc(CN3CCCCC3)cc12 [Example 104, 2-(2-Chloro-pyridin-4-yl)-6-piperidin-1-ylmethyl-thieno[2,3-d]pyrimidin-4-ylamine]
	816	2440	Nc1nc(-c2cccc(O)c2)nc2sc(CN3CCOCC3)cc12 [Example 106, 3-(4-Amino-6-morpholin-4-ylmethyl-thieno[2,3-d]pyrimidin-2-yl)-phenol]
